The source made the active and inactive calls. The rule behind the calls is not given here.
Columns and labels:
MDA-MB-231 [1] = assay: Antimigratory activity in human MDA-MB-231 cells assessed as reduction in migration ability incubated for 24 hrs by wound healing assay; type: functional, cell-based; details: dose 2.5-10 µM
[2] = Toxicity in female BALB/C mouse implanted with mouse 4T1 cells assessed as liver damage at 20 to 50 mg/kg, iv administered every two days for 21 days by H and E staining based analysis; type: organism-based; details: in vivo, 504 h, dose 20-50 mg/kg, time 21 day
MDA-MB-231 [3] = assay: Induction of apoptosis in human MDA-MB-231 cells assessed as late apoptotic cells at 5 uM incubated for 48 hrs by Annexin V-FITC/PI staining based flow cytometric analysis (reference value: 1.06%); type: functional
MDA-MB-231 [4] = assay: Induction of apoptosis in human MDA-MB-231 cells assessed as viable cells at 10 uM incubated for 48 hrs by Annexin V-FITC/PI staining based flow cytometric analysis (reference value: 95.10%); type: functional; details: read-out: Activity
[5] = Toxicity in female BALB/C mouse implanted with mouse 4T1 cells assessed as change in WBC level at 20 to 50 mg/kg, po administered every two days for 21 days by routine blood analysis; type: organism-based; details: in vivo, 504 h, dose 20-50 mg/kg, time 21 day
MDA-MB-231 [6] = assay: Cell cycle arrest in human MDA-MB-231 cells assessed as G2 phase cells at 20 uM incubated for 24 hrs by PI staining based flow cytometric analysis (reference value: 14.6%); type: functional
MDA-MB-231 [7] = assay: Antiproliferative activity against human MDA-MB-231 cells assessed as reduction in cell viability incubated for 96 hrs by MTT assay; details: MDA-MB-231, 96 h
MDA-MB-231 [8] = assay: Induction of apoptosis in human MDA-MB-231 cells assessed as late apoptotic cells at 10 uM incubated for 48 hrs by Annexin V-FITC/PI staining based flow cytometric analysis (reference value: 1.06%); type: functional
4T1 [9] = assay: Antitumor activity against mouse 4T1 cells implanted in female BALB/C mouse assessed as inhibition of tumor weight at 20 mg/kg, po administered every two days for 21 days relative to control; type: functional, organism-based; details: time 21.0 day
4T1 [10] = assay: Antitumor activity against mouse 4T1 cells implanted in female BALB/C mouse assessed as inhibition of tumor weight at 50 mg/kg, iv administered every two days for 21 days relative to control; type: functional, organism-based; details: time 21.0 day
MDA-MB-468 = assay: Antiproliferative activity against human MDA-MB-468 cells assessed as reduction in cell viability incubated for 96 hrs by MTT assay; details: MDA-MB-468, 96 h
[11] = Toxicity in female BALB/C mouse implanted with mouse 4T1 cells assessed as change in serum LDH level at 20 to 50 mg/kg, iv administered every two days for 21 days; type: organism-based; details: in vivo, 504 h, dose 20-50 mg/kg, time 21 day
MDA-MB-231 [12] = assay: Induction of apoptosis in human MDA-MB-231 cells assessed as viable cells at 5 uM incubated for 48 hrs by Annexin V-FITC/PI staining based flow cytometric analysis (reference value: 95.10%); type: functional; details: read-out: Activity
MDA-MB-231 [13] = assay: Induction of autophagy in human MDA-MB-231 cells assessed as appearance of ring shaped aggregates at 5 to 20 uM incubated for 48 hrs by DAPI staining based immunofluorescence analysis; type: functional, cell-based; details: dose 5-20 µM
[14] = Toxicity in female BALB/C mouse implanted with mouse 4T1 cells assessed as change in serum CK level at 20 to 50 mg/kg, iv administered every two days for 21 days; type: organism-based; details: in vivo, 504 h, dose 20-50 mg/kg, time 21 day
MDA-MB-231 [15] = assay: Induction of apoptosis in human MDA-MB-231 cells assessed as necrotic cells at 2.5 uM incubated for 48 hrs by Annexin V-FITC/PI staining based flow cytometric analysis (reference value: 1.63%); type: functional
[16] = Toxicity in female BALB/C mouse implanted with mouse 4T1 cells assessed as change in serum CK level at 20 to 50 mg/kg, po administered every two days for 21 days; type: organism-based; details: in vivo, 504 h, dose 20-50 mg/kg, time 21 day
[17] = Toxicity in female BALB/C mouse implanted with mouse 4T1 cells assessed as spleen damage at 20 to 50 mg/kg, iv administered every two days for 21 days by H and E staining based analysis; type: organism-based; details: in vivo, 504 h, dose 20-50 mg/kg, time 21 day
MDA-MB-231 [18] = assay: Cell cycle arrest in human MDA-MB-231 cells assessed as G1 phase cells at 20 uM incubated for 72 hrs by PI staining based flow cytometric analysis (reference value: 56.7%); type: functional
MDA-MB-231 [19] = assay: Cell cycle arrest in human MDA-MB-231 cells assessed as G1 phase cells at 10 uM incubated for 48 hrs by PI staining based flow cytometric analysis (reference value: 76.7%); type: functional
[20] = Toxicity in female BALB/C mouse implanted with mouse 4T1 cells assessed as change in serum AST level at 20 to 50 mg/kg, po administered every two days for 21 days; type: organism-based; details: in vivo, 504 h, dose 20-50 mg/kg, time 21 day
[21] = Toxicity in female BALB/C mouse implanted with mouse 4T1 cells assessed as change in number of platelets at 20 to 50 mg/kg, po administered every two days for 21 days by routine blood analysis; type: organism-based; details: in vivo, 504 h, dose 20-50 mg/kg, time 21 day
MDA-MB-231 [22] = assay: Induction of apoptosis in human MDA-MB-231 cells assessed as viable cells at 20 uM incubated for 48 hrs by Annexin V-FITC/PI staining based flow cytometric analysis (reference value: 95.10%); type: functional; details: read-out: Activity
MDA-MB-231 [23] = assay: Cell cycle arrest in human MDA-MB-231 cells assessed as S phase cells at 20 uM incubated for 48 hrs by PI staining based flow cytometric analysis (reference value: 28.7%); type: functional
4T1 [24] = assay: Antitumor activity against mouse 4T1 cells implanted in female BALB/C mouse assessed as inhibition of tumor weight at 50 mg/kg, po administered every two days for 21 days relative to control; type: functional, organism-based; details: time 21.0 day
MDA-MB-231 [25] = assay: Induction of autophagy in human MDA-MB-231 cells assessed as increase in beclin-1 expression level incubated for 48 hrs by Western blot analysis; type: functional, cell-based; details: dose 5-20 µM
MDA-MB-231 [26] = assay: Induction of autophagy in human MDA-MB-231 cells assessed as autophagic lysosomes at 10 uM incubated for 48 hrs by transmission electron microscopic analysis; type: functional, cell-based
MDA-MB-231 [27] = assay: Induction of autophagy in human MDA-MB-231 cells assessed as increase in LC3BII expression level incubated for 48 hrs by Western blot analysis; type: functional, cell-based
MDA-MB-231 [28] = assay: Induction of apoptosis in human MDA-MB-231 cells assessed as necrotic cells at 10 uM incubated for 48 hrs by Annexin V-FITC/PI staining based flow cytometric analysis (reference value: 1.63%); type: functional
MDA-MB-231 [29] = assay: Induction of apoptosis in human MDA-MB-231 cells assessed as viable cells at 2.5 uM incubated for 48 hrs by Annexin V-FITC/PI staining based flow cytometric analysis (reference value: 95.10%); type: functional; details: read-out: Activity
MDA-MB-231 [30] = assay: Induction of apoptosis in human MDA-MB-231 cells assessed as early apoptotic cells at 10 uM incubated for 48 hrs by Annexin V-FITC/PI staining based flow cytometric analysis (reference value: 2.25 %); type: functional
MDA-MB-231 [31] = assay: Cell cycle arrest in human MDA-MB-231 cells assessed as S phase cells at 20 uM incubated for 24 hrs by PI staining based flow cytometric analysis (reference value: 28.7%); type: functional
MDA-MB-231 [32] = assay: Induction of apoptosis in human MDA-MB-231 cells assessed as late apoptotic cells at 20 uM incubated for 48 hrs by Annexin V-FITC/PI staining based flow cytometric analysis (reference value: 1.06%); type: functional
MDA-MB-231 [33] = assay: Induction of apoptosis in human MDA-MB-231 cells assessed as late apoptotic cells at 2.5 uM incubated for 48 hrs by Annexin V-FITC/PI staining based flow cytometric analysis (reference value: 1.06%); type: functional

- IC50 (MDA-MB-231 [7]): 1.43 µM
- IC50 (MDA-MB-468): 7.24 µM
Compound: CCC(=O)NC(n1cnc2c(Nc3cc(OC)c(OC)c(OC)c3)nc(N)nc21)C(Cl)(Cl)Cl (centres undefined)
- Activity (MDA-MB-231 [1]): Dose-Dependent Effect
- Activity [2]: Non-Toxic
- Activity (MDA-MB-231 [3]): 1.87%
- viability at 10 µM (MDA-MB-231 [4]): 92.3%
- Activity [5]: Non-Toxic
- Activity (MDA-MB-231 [6]): 40.1%
- Activity (MDA-MB-231 [8]): 2.04%
- Activity (4T1 [9]): inactive
- Activity (4T1 [10]): inactive
- Activity [11]: Non-Toxic
- viability at 5 µM (MDA-MB-231 [12]): 92.8%
- Activity (MDA-MB-231 [13]): Active
- Activity [14]: Non-Toxic
- Activity (MDA-MB-231 [15]): 1.57%
- Activity [16]: Non-Toxic
- Activity [17]: Non-Toxic
- Activity (MDA-MB-231 [18]): 36.4%
- Activity (MDA-MB-231 [19]): 77.5%
- Activity [20]: Non-Toxic
- Activity [21]: Non-Toxic
- viability at 20 µM (MDA-MB-231 [22]): 91.7%
- Activity (MDA-MB-231 [23]): 13.3%
- Activity (4T1 [24]): inactive
- Activity (MDA-MB-231 [25]): Dose-Dependent Effect
- Activity (MDA-MB-231 [26]): Active
- Activity (MDA-MB-231 [27]): Dose-Dependent Effect
- Activity (MDA-MB-231 [28]): 1.14%
- viability at 2.5 µM (MDA-MB-231 [29]): 95.7%
- Activity (MDA-MB-231 [30]): 4.54%
- Activity (MDA-MB-231 [31]): 27.6%
- Activity (MDA-MB-231 [32]): 1.96%
- Activity (MDA-MB-231 [33]): 1.4%

From ChEMBL document CHEMBL5505975, “Design, synthesis and biological evaluation of CDC20 inhibitors for treatment of triple-negative breast cancer” (Eur J Med Chem, 2024)
